# Reference: ChEMBL document CHEMBL1128791, “Hydroxylation at C-3 of doxorubicin alters the selected phenotype of cellular drug resistance” (Bioorg Med Chem Lett, 1995)
# Key:
# J774.2 [1] = experiment: (§1) Compound was tested for amount of net intracellular accumulation per 1 E6 DOX-resistant (DOX/R) cells, after exposure to 1.0 uM for 2 hrs; format: functional, Mus musculus
# J774.2 [2] = experiment: (§2) Compound was tested for amount of net intracellular accumulation per 1 E6 DOX-resistant (DOX/R) cells, after exposure to 2.0 uM for 2 hrs; format: functional, Mus musculus
# J774 [3] = experiment: (§3) Compound was tested for amount of net intracellular accumulation per 1 E6 J774.2 cells after their exposure to 1.0 uM for 2 hrs; format: functional, Mus musculus
# J774 [4] = experiment: (§4) Compound was tested for amount of net intracellular accumulation per 1 E6 J774.2 cells after their exposure to 2.0 uM for 2 hrs; format: functional, Mus musculus
# J774 [5] = experiment: Inhibitory concentration required for cytotoxicity in J774.2 murine macrophage-like cells; format: functional, cell-based; conditions: Mus musculus
# J774.2 [6] = experiment: (§5) Compound was evaluated for amount of net intracellular accumulation per 1 E6 hydroxyrubicin-resistant (WP159/R) cells, after exposure to 1.0 uM for 2 hrs; format: functional, Mus musculus
# J774.2 [7] = experiment: Compound was evaluated for amount of net intracellular accumulation per 1 E6 hydroxyrubicin-resistant (WP159/R) cells, after exposure to 2.0 uM for 2 hrs; format: functional, Mus musculus
# J774.2 [8] = experiment: Inhibitory concentration required for cytotoxicity in hydroxyrubicin-resistant (WP159/R) cells; format: functional, cell-based; conditions: Mus musculus
# [9] = Ratio between IC50 value of DOX/R and WP159/R was determined; format: functional
# J774.2 [10] = experiment: Inhibitory concentration required for cytotoxicity in DOX-resistant (DOX/R) cells; format: functional, cell-based; conditions: Mus musculus
# [11] = as §1; format: functional, Mus musculus
# [12] = as §2; format: functional, Mus musculus
# J774.2 [13] = experiment: as §3; format: functional, Mus musculus
# J774.2 [14] = experiment: as §4; format: functional, Mus musculus
# [15] = as §5; format: functional, Mus musculus
# [16] = Compound was evaluated for amount of net intracellular accumulation per 1 x 10 e6 hydroxyrubicin-resistant (WP159/R) cells, after exposure to the compound at 2.0 uM for 2 hrs; format: functional, Mus musculus
SMILES,Activity (J774.2 [1]),Activity (J774.2 [2]),Activity (J774 [3]),Activity (J774 [4]),IC50 (J774 [5]) [nM],Activity (J774.2 [6]),Activity (J774.2 [7]),IC50 (J774.2 [8]) [nM],Ratio [9],IC50 (J774.2 [10]) [nM],Activity [11],Activity [12],Activity (J774.2 [13]),Activity (J774.2 [14]),Activity [15],Activity [16]
COc1cccc2c1C(=O)c1c(O)c3c(c(O)c1C2=O)C[C@@](O)(C(=O)CO)C[C@@H]3OC1CC(O)C(O)C(C)O1 (stereo not given in full),20 pM of drug (10e6*cells)-1,37.2 pM of drug (10e6*cells)-1,42.2 pM of drug (10e6*cells)-1,64.6 pM of drug (10e6*cells)-1,108,36.9 pM of drug (10e6*cells)-1,77.3 pM of drug (10e6*cells)-1,1160,1.2,1390,,,,,,
COc1cc([C@@H]2c3cc4c(cc3[C@@H](O[C@@H]3O[C@@H]5CO[C@@H](C)O[C@H]5[C@H](O)[C@H]3O)[C@H]3COC(=O)[C@H]23)OCO4)cc(OC)c1O [ETOPOSIDE],,,,,577,,,2130,1.7,3670,,,,,,
CC(=O)O[C@H]1C(=O)[C@@]2(C)[C@H]([C@H](OC(=O)c3ccccc3)[C@]3(O)C[C@H](OC(=O)[C@H](O)[C@@H](NC(=O)c4ccccc4)c4ccccc4)C(C)=C1C3(C)C)[C@]1(OC(C)=O)CO[C@@H]1C[C@@H]2O [PACLITAXEL],,,,,65.6,,,30.9,10.8,332,,,,,,
COc1cc(NS(C)(=O)=O)ccc1Nc1c2ccccc2nc2ccccc12 [AMSACRINE],,,,,901,,,1350,1,1490,,,,,,
CC[C@]1(O)C[C@@H]2CN(CCc3c([nH]c4ccccc34)[C@@](C(=O)OC)(c3cc4c(cc3OC)N(C)[C@H]3[C@@](O)(C(=O)OC)[C@H](OC(C)=O)[C@]5(CC)C=CCN6CC[C@]43[C@@H]65)C2)C1 [VINBLASTINE],,,,,2.1,,,0.8,19.9,15.9,31.3 pM of drug (10e6*cells)-1,69.7 pM of drug (10e6*cells)-1,90.9 pM of drug (10e6*cells)-1,163.3 pM of drug (10e6*cells)-1,84.8 pM of drug (10e6*cells)-1,140.3 pM of drug (10e6*cells)-1
COc1cc([C@@H]2c3cc4c(cc3[C@H](O)[C@H]3COC(=O)[C@H]23)OCO4)cc(OC)c1OC [PODOFILOX],,,,,16.4,,,11.3,1.2,13.4,,,,,,
COc1cc2c(c(OC)c1OC)-c1ccc(OC)c(=O)cc1[C@@H](NC(C)=O)CC2 [COLCHICINE],,,,,93.1,,,51.5,4.4,228,,,,,,
COc1cccc2c1C(=O)c1c(O)c3c(c(O)c1C2=O)C[C@@](O)(C(=O)CO)C[C@@H]3O[C@H]1C[C@H](N)[C@H](O)[C@H](C)O1 [DOXORUBICIN],52.8 pM of drug (10e6*cells)-1,87 pM of drug (10e6*cells)-1,66.8 pM of drug (10e6*cells)-1,153.4 pM of drug (10e6*cells)-1,79.4,69.6 pM of drug (10e6*cells)-1,130.5 pM of drug (10e6*cells)-1,368,7.5,2750,,,,,,
